{
  "source": "patent US9133525B2",
  "about": "“Detection of DNA sequences as risk factors for HIV infection” (priority 2012, dated 2015)",
  "test_system": "antibiotic sensitive microorganism associated with red blood cells",
  "assay": "PCR amplification of DNA from red blood cells of HIV-positive patients with MSP2 Primer Pairs 1 and 2, before and after long-term antibiotic treatment",
  "type": "in vivo, human (HIV-positive patients)",
  "method": "Standard procedures for separating RBCs from buffy coat and other peripheral blood components are known. Peripheral blood was processed on a Ficoll gradient to separate the buffy coat from red blood cells. […] This lysate was prepared by repeated freeze-thawing of red blood cells isolated from the buffy coat, strong shaking by vortex, and a low speed centrifugation (1,500 g×10 mins). A pellet and supernatant fraction were obtained and tested. The primers described above only amplified DNA in the supernatant fraction, but not in the pellet.\nFive HIV-positive patients were maintained on their antiretroviral therapy, but received for at least three months a daily antibiotic treatment (azithromycin 250 mg/day or doxycycline 100 mg/day). Blood samples were fractionated to recover a red blood cell fraction on day 0 and after 3 months of antibiotic.\nBlood samples were obtained from African and European Patients who were HIV-negative or HIV-positive. Red blood cells were isolated from buffy coat and other blood components by separation on a Ficoll gradient as described above. […] Similar results were obtained using the primers described in Appendix 3. […] However, amplified DNA was detected in this patient using the Primer Pairs 1 and 2 shown in Appendix 2, but the amplified DNA bands were weaker than those for chronically-infected HIV-positive patients. […]",
  "data": [
    {"smiles": "CC[C@H]1OC(=O)[C@H](C)[C@@H](O[C@H]2C[C@@](C)(OC)[C@@H](O)[C@H](C)O2)[C@H](C)[C@@H](O[C@@H]2O[C@H](C)C[C@H](N(C)C)[C@H]2O)[C@](C)(O)C[C@@H](C)CN(C)[C@H](C)[C@@H](O)[C@]1(C)O", "note": "[azithromycin]", "values": [
      {"measurement": "intensity of the bands amplified using these primers", "setting": "HIV-positive patients, long term antibiotic treatment for more than three months, Primer Pairs 1 and 2", "value": "decrease"},
      {"measurement": "amount of DNA amplified after 3 months of antibiotic treatment vs day 0", "setting": "five HIV-positive patients on antiretroviral therapy, daily azithromycin 250 mg/day or doxycycline 100 mg/day for at least three months, red blood cell fraction", "value": "significantly less"}
    ]}
  ]
}
